Laboratory results published in paper PMC7589200, “Identification of Putative Non-Substrate-Based XT-I Inhibitors by Natural Product Library Screening” (Biomolecules, 2020).
Where a name gives a salt, the structure may show the parent alone.

What follows are compounds tested against T1, recombinant human XT-I (Homo sapiens, UniProt Q86Y38) (assay: NP library inhibitor screening, UPLC/ESI-MS/MS XT-I assay). Conditions: not given.
T1 sequence (Q86Y38 252-959 limits assumed): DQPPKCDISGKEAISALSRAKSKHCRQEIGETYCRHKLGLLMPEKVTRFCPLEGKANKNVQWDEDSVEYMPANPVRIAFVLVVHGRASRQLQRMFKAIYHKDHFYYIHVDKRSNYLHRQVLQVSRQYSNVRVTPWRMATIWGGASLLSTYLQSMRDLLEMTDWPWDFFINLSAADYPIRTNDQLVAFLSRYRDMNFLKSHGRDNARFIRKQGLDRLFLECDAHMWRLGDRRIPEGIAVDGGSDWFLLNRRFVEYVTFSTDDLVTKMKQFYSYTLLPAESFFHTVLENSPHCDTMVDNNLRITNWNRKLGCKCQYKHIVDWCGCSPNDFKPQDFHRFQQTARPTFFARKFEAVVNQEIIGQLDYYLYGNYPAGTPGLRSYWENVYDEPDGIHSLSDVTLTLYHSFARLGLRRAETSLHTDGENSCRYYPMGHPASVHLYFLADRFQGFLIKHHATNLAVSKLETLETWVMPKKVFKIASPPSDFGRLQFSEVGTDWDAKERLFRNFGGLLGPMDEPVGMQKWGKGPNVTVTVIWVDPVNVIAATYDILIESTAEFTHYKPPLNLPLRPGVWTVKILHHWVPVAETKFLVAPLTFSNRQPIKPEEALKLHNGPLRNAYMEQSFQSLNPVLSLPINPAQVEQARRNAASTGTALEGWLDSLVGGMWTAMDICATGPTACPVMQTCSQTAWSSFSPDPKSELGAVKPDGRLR
Format: biochemical
For `COc1cc(CNC(=O)CCCC/C=C/C(C)C)ccc1O` [Compound 94, Capsaicin (Vanilloid)], the “XT-I Activity [%]” value was 135%.

Same assay, conditions: Table S1; 50 μM inhibitor; relative to negative control containing DMSO; technical duplicates
For `COc1cccc2c1C(=O)c1c(O)c3c(c(O)c1C2=O)C[C@@](O)(C(=O)CO)C[C@@H]3O[C@H]1C[C@H](N)[C@H](O)[C@H](C)O1.Cl` [Compound 67, Doxorubicin (Adriamycin) HCl], the “XT-I Activity [%]” value was 113%.
In the case of `CC[C@]1(O)C[C@H]2CN(CCc3c([nH]c4ccccc34)[C@@](C(=O)OC)(c3cc4c(cc3OC)N(C=O)[C@H]3[C@@](O)(C(=O)OC)[C@H](OC(C)=O)[C@]5(CC)C=CCN6CC[C@]43[C@@H]65)C2)C1` [Compound 35, Vincristine sulfate], the remaining activity at 50 µM is reported as 87%.
For `CC(=O)[C@H]1CC[C@H]2[C@@H]3CC=C4C[C@@H](O)CC[C@]4(C)[C@H]3CC[C@]12C` [Compound 11, Pregnenolone], the “XT-I Activity [%]” value was 95%.
With `Cl.Nc1ncnc2nc[nH]c12` [Compound 93, Adenine HCl] the “XT-I Activity [%]” value was 146%.
`CO[C@H]1C[C@@H]2CC[C@@H](C)[C@@](O)(O2)C(=O)C(=O)N2CCCC[C@H]2C(=O)O[C@H]([C@H](C)C[C@@H]2CC[C@@H](O)[C@H](OC)C2)CC(=O)[C@H](C)/C=C(\C)[C@@H](O)[C@@H](OC)C(=O)[C@H](C)C[C@H](C)/C=C/C=C/C=C/1C` [Compound 1, Rapamycin (Sirolimus)] showed a remaining activity at 50 µM of 70%.
Work on `COc1cnc(NS(=O)(=O)c2ccc(N)cc2)nc1` [Compound 82, Sulfameter] yielded a remaining activity at 50 µM of 126%.
`C[C@H]1[C@H](NC(=O)/C(=N\OC(C)(C)C(=O)O)c2csc(N)n2)C(=O)N1S(=O)(=O)O` [Compound 5, Aztreonam] gave a remaining activity at 50 µM of 94%.
With `CCN1CCN(C(=O)N[C@@H](C(=O)N[C@@H]2C(=O)N3C(C(=O)O)=C(CSc4nnnn4C)CS[C@H]23)c2ccc(O)cc2)C(=O)C1=O` [Compound 71, Cefoperazone] the remaining activity at 50 µM was 83%.
With `C[C@]12CC[C@@H]3c4ccc(O)cc4CC[C@H]3[C@@H]1CC[C@@H]2O` [Compound 84, Estradiol] the remaining activity at 50 µM was 128%.
Work on `Oc1c(Cl)cc(Cl)c2cccnc12` [Compound 64, Chloroxine] yielded a remaining activity at 50 µM of 121%.
`Clc1ccccc1C(c1ccccc1)(c1ccccc1)n1ccnc1` [Compound 60, Clotrimazole] showed a remaining activity at 50 µM of 101%.
`C=C1C(=O)O[C@@H]2/C=C(\C)CC/C=C(\C)CC[C@@H]12` [Compound 14, Costunolide] showed a remaining activity at 50 µM of 121%.
With `C[C@H]1O[C@H](O[C@H]2[C@H](O)[C@@H](O)[C@@H](O[C@H]3[C@H](O)[C@@H](O)C(O)O[C@@H]3CO)O[C@@H]2CO)[C@H](O)[C@@H](O)[C@@H]1N[C@H]1C=C(CO)[C@@H](O)[C@H](O)[C@H]1O` (stereo partly drawn) [Compound 46, Acarbose] the remaining activity at 50 µM was 92%.
`COc1c2occc2cc2ccc(=O)oc12` [Compound 77, Methoxsalen] was tested, and the remaining activity at 50 µM was 107%.
For Bleomycin sulfate [Compound 96], the “XT-I Activity [%]” value was 149%.
`CCc1cc(C(N)=S)ccn1` [Compound 85, Ethionamide] was tested, and the remaining activity at 50 µM was 130%.
In the case of `COc1cc([C@@H]2c3cc4c(cc3[C@@H](O[C@@H]3O[C@@H]5CO[C@@H](C)O[C@H]5[C@H](O)[C@H]3O)[C@H]3COC(=O)[C@H]23)OCO4)cc(OC)c1O` [Compound 13, Etoposide], the remaining activity at 50 µM is reported as 114%.
`Cc1noc(NS(=O)(=O)c2ccc(N)cc2)c1C` [Compound 33, Sulfisoxazole] showed a remaining activity at 50 µM of 95%.
`CCCSc1ccc2nc(NC(=O)OC)[nH]c2c1` [Compound 28, Albendazole] showed a remaining activity at 50 µM of 77%.
`C[C@@H](O)[C@H]1C(=O)N2C(C(=O)O)=C(S[C@@H]3CN[C@H](C(=O)N(C)C)C3)[C@H](C)[C@H]12` [Compound 26, Meropenem] was tested, and the remaining activity at 50 µM was 107%.
Compound `Nc1ncnc2c1ncn2[C@@H]1O[C@H](CO)[C@@H](O)[C@@H]1O` [Compound 9, Vidarabine] has a remaining activity at 50 µM of 103%.
`C[C@@H]1[C@H](O)[C@@H](C)/C=C/C=C/CC/C=C/C=C/C=C/C=C/[C@H](O[C@H]2O[C@@H](C)[C@H](O)[C@@H](N)[C@H]2O)C[C@@H]2O[C@](O)(C[C@@H](O)[C@H](O)CC[C@@H](O)C[C@@H](O)C[C@@H](O)CC(=O)O[C@H]1C)C[C@H](O)[C@H]2C(=O)O` [Compound 44, Nystatin (Fungicidin)] was tested, and the “XT-I Activity [%]” value was 52%.
`NC(=O)N/N=C/c1ccc([N+](=O)[O-])o1` [Compound 50, Nitrofural] was tested, and the remaining activity at 50 µM was 104%.
`C[C@H](CCC(=O)O)[C@H]1CC[C@H]2[C@@H]3[C@H](O)C[C@@H]4C[C@H](O)CC[C@]4(C)[C@H]3CC[C@]12C` [Compound 75, Chenodeoxycholic Acid] was tested, and the remaining activity at 50 µM was 113%.
With `C[C@H]1COc2c(N3CCN(C)CC3)c(F)cc3c(=O)c(C(=O)O)cn1c23` [Compound 55, Levofloxacin] the remaining activity at 50 µM was 111%.
`Nc1ncnc2c1ncn2[C@@H]1O[C@H](CO)[C@@H](O)[C@H]1O` [Compound 61, Adenosine] showed a remaining activity at 50 µM of 103%.
For `CO/N=C(\C(=O)N[C@@H]1C(=O)N2C(C(=O)OCOC(=O)C(C)(C)C)=C(/C=C\c3scnc3C)CS[C@H]12)c1csc(N)n1` [Compound 52, Cefditoren Pivoxil], the remaining activity at 50 µM was 104%.
With `CC[C@H]1OC(=O)[C@H](C)[C@@H](O[C@H]2C[C@@](C)(OC)[C@@H](O)[C@H](C)O2)[C@H](C)[C@@H](O[C@@H]2O[C@H](C)C[C@H](N(C)C)[C@H]2O)[C@](C)(O)C[C@@H](C)CN(C)[C@H](C)[C@@H](O)[C@]1(C)O` [Compound 53, Azithromycin] the remaining activity at 50 µM was 109%.
Work on `C[C@@H]1C/C=C/C=C/C=C/C=C/[C@H](O[C@@H]2O[C@H](C)[C@@H](O)[C@H](N)[C@@H]2O)C[C@@H]2O[C@](O)(C[C@@H](O)C[C@H]3O[C@@H]3/C=C/C(=O)O1)C[C@H](O)[C@H]2C(=O)O` [Compound 27, Natamycin] yielded a remaining activity at 50 µM of 95%.
For `C[C@@H](O)[C@H]1C(=O)N2C(C(=O)O)=C(S[C@@H]3CN[C@H](CNS(N)(=O)=O)C3)[C@H](C)[C@H]12.O` [Compound 4, Doripenem Hydrate], the “XT-I Activity [%]” value was 86%.
Compound `CC1=CC(=O)c2ccccc2C1=O` [Compound 66, Menadione] has a remaining activity at 50 µM of 106%.
Work on `N[C@@H](C(=O)N[C@@H]1C(=O)N2C(C(=O)O)=C(Cl)CS[C@H]12)c1ccccc1` [Compound 81, Cefaclor] yielded a remaining activity at 50 µM of 71%.
`Oc1ccc(/C=C/c2cc(O)cc(O)c2)cc1` [Compound 37, Resveratrol] showed a remaining activity at 50 µM of 51%.
`C[C@@H]1CN(c2c(F)c(N)c3c(=O)c(C(=O)O)cn(C4CC4)c3c2F)C[C@H](C)N1` [Compound 43, Sparfloxacin] gave a remaining activity at 50 µM of 89%.
`CC1(C)[C@H](C(=O)O)N2C(=O)C[C@H]2S1(=O)=O` [Compound 90, Sulbactam] gave a remaining activity at 50 µM of 138%.
With `Cn1c(=O)c2[nH]cnc2n(C)c1=O` [Compound 18, Aminophylline] the remaining activity at 50 µM was 122%.
Compound `C/C(=C\c1csc(C)n1)[C@@H]1C[C@@H]2O[C@@H]2CCC[C@H](C)[C@H](O)[C@@H](C)C(=O)C(C)(C)[C@@H](O)CC(=O)O1` [Compound 79, Epothilone A] has a remaining activity at 50 µM of 119%.
In the case of `O=c1[nH]cc(F)c(=O)[nH]1` [Compound 78, Fluorouracil (5-Fluoracil, 5-FU)], the “XT-I Activity [%]” value is reported as 137%.
For `C[C@]12CCC(=O)C=C1CC[C@@H]1[C@@H]2[C@@H](O)C[C@@]2(C)[C@H]1CC[C@]2(O)C(=O)CO` [Compound 62, Hydrocortisone], the remaining activity at 50 µM was 122%.
Compound `CC1=C(/C=C/C(C)=C/C=C/C(C)=C\C(=O)O)C(C)(C)CCC1` [Compound 15, Isotretinoin] has a remaining activity at 50 µM of 86%.
For `C[C@H](CCC(=O)O)[C@H]1CC[C@H]2[C@@H]3[C@@H](O)C[C@@H]4C[C@H](O)CC[C@]4(C)[C@H]3CC[C@]12C` [Compound 39, Ursodiol], the remaining activity at 50 µM was 98%.
With `COc1cc2c(cc1O)CC[C@@H]1[C@@H]2CC[C@]2(C)[C@@H](O)CC[C@@H]12` [Compound 24, 2-Methoxyestradiol (2-MeOE2)] the “XT-I Activity [%]” value was 114%.
For `CCn1cc(C(=O)O)c(=O)c2cc(F)c(N3CCN(C)CC3)cc21` [Compound 21, Pefloxacin Mesylate], the remaining activity at 50 µM was 108%.
Compound `C[C@]12CC[C@@H]3c4ccc(O)cc4CC[C@H]3[C@@H]1CCC2=O` [Compound 83, Estrone] has a remaining activity at 50 µM of 120%.
